Among the data in patent publication US20230079819A1, “COMPOUNDS AND USES THEREOF” (Foghorn Therapeutics Inc., priority 2019, published 2023) are IC50 values, retold here.

Each structure is given as a SMILES string.

For one assay, the target named is T1, BRM (Homo sapiens, UniProt P51531).
T1 construct: made in house; host or cells: High Five insect cells
As to the kind of experiment: ATPase catalytic activity of BRM, ADP-Glo in vitro biochemical assay. Particulars: ATPase catalytic activity, 30 nM BRM, 400 μM ATP, read-out: BRM IP50.

Another assay deals with T2, BRG-1 (Homo sapiens, UniProt P51532).
T2 construct: made in house; host or cells: High Five insect cells
As to the kind of experiment: ATPase catalytic activity of BRG-1, ADP-Glo in vitro biochemical assay. Particulars: ATPase catalytic activity, 30 nM BRG-1, 400 μM ATP, read-out: BRG1 IP50. On the technique in general: In ADP-Glo the light output rises with the ADP produced.

T1 sequence (P51531 whole entry): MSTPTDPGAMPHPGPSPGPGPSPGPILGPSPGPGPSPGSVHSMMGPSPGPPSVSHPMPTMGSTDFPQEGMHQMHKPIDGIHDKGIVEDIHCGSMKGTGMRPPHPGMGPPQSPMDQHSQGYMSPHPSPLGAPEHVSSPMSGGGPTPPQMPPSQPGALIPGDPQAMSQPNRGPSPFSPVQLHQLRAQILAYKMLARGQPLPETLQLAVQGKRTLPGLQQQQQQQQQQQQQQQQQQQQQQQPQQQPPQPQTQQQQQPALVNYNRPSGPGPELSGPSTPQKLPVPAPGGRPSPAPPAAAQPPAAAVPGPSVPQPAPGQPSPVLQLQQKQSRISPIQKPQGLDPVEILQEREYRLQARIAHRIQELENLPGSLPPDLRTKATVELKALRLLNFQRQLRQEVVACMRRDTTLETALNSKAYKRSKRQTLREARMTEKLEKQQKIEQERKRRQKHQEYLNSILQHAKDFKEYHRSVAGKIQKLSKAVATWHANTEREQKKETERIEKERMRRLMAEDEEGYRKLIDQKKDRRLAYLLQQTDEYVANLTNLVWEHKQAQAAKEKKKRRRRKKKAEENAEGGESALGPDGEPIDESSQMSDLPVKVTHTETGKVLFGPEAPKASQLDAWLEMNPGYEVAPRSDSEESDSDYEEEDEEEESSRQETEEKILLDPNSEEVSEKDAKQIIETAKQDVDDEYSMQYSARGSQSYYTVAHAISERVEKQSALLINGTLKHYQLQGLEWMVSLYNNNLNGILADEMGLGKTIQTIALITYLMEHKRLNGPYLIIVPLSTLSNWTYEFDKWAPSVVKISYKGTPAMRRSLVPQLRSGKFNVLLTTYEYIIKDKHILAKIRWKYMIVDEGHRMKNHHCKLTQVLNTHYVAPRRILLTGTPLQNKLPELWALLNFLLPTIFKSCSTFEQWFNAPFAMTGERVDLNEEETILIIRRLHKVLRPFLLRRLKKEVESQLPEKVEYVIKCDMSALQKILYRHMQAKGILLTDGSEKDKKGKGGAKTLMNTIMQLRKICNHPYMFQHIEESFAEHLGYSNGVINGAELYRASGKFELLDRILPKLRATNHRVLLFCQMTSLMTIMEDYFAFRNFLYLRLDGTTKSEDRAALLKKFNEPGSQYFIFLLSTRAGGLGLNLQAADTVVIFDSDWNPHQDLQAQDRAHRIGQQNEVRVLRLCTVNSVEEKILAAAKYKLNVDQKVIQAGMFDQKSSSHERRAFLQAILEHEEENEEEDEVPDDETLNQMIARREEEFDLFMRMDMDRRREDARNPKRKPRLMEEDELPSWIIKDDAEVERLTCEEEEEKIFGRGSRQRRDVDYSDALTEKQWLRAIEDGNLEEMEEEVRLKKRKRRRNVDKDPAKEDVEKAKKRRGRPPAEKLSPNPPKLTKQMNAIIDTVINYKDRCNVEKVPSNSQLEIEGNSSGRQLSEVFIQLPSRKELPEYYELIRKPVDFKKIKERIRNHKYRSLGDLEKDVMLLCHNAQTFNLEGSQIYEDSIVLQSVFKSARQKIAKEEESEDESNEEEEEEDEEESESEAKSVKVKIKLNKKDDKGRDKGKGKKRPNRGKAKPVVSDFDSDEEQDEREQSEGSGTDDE
T2 sequence (P51532 whole entry): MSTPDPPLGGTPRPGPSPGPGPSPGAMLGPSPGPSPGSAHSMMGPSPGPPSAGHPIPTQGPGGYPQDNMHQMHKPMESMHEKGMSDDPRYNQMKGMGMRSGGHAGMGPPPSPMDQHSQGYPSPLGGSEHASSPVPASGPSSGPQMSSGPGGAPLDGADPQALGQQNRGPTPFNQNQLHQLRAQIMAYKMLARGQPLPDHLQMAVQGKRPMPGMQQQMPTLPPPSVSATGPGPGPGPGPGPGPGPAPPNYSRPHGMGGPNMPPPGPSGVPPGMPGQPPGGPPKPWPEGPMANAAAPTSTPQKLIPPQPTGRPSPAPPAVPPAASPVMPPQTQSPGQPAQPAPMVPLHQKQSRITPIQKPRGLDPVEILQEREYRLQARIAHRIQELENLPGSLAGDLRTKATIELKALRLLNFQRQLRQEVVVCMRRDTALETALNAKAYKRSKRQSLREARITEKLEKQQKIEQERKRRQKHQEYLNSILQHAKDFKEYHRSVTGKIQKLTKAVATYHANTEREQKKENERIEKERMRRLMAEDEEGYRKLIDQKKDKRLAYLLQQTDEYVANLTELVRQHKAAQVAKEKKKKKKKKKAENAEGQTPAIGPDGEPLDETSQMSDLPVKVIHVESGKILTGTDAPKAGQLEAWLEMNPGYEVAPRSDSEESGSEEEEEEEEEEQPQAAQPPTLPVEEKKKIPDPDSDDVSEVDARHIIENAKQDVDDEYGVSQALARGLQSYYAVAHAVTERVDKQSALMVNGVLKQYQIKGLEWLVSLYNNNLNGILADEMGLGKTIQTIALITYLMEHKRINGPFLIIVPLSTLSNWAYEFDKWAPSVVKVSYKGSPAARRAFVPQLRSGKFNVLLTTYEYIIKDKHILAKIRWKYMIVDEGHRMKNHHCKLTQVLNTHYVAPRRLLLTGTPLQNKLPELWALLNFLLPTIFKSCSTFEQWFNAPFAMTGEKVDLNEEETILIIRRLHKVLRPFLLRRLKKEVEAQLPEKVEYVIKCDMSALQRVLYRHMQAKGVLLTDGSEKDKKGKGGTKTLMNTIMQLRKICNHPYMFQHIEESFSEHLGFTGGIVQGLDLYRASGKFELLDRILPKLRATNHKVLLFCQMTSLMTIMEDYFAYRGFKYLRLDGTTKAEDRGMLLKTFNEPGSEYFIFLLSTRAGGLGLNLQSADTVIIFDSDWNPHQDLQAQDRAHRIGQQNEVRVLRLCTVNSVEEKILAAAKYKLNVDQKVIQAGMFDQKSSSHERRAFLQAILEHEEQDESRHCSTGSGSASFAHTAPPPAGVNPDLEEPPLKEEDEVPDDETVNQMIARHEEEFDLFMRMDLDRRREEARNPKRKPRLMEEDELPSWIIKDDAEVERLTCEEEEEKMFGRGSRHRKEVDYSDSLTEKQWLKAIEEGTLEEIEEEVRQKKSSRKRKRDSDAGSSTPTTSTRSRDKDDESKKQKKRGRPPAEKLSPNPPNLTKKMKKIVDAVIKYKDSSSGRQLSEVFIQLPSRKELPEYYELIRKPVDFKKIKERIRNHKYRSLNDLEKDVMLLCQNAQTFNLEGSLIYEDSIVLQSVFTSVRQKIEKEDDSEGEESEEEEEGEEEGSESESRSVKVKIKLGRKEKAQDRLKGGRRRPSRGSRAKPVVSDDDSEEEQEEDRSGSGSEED

For the molecule `COC[C@H](NC(=O)c1ccn(S(C)(=O)=O)c1)C(=O)Nc1nc(-c2cc(Cl)c3c(c2)OCO3)cs1` [Compound 617], the IC50 was more than 10 nM on BRM and more than 100 nM on BRG-1.
As for `CC(C)(C)n1ccc(C(=O)NCC(=O)Nc2nc(-c3cccc(N4CCC(C(F)F)C4)n3)cs2)c1` (stereo not shown) [Compound 618], the IC50 at BRM and on BRG-1 was more than 10 nM in each case.
Turning to `CS(=O)(=O)n1ccc(C(=O)NCC(=O)Nc2nc(-c3ccc4c(c3)CCO4)cs2)c1` [Compound 619], the IC50 is less than 10 nM on BRM and more than 10 nM at BRG-1.
As to `CC(C)(C)n1ccc(C(=O)NCC(=O)Nc2nc(-c3cccc(N4CCC5(COC5)C4)n3)cs2)c1` [Compound 620], the IC50 on BRM and at BRG-1 was more than 10 nM in each case.
With `C[C@@H]1CN(c2cccc(-c3csc(NC(=O)CNC(=O)c4ccn([C@@]5(C)CC5(F)F)c4)n3)n2)C[C@H](C)O1` [Compound 621], the IC50 at BRM and at BRG-1 was more than 100 nM each time.
Turning to `C[C@@H]1CN(c2cccc(-c3csc(NC(=O)CNC(=O)c4ccn([C@]5(C)CC5(F)F)c4)n3)n2)C[C@H](C)O1` [Compound 622], the IC50 was less than 10 nM on BRM and more than 10 nM on BRG-1.
As for `CN(C)[C@H]1CCN(c2cccc(-c3csc(NC(=O)CNC(=O)c4ccn(C(C)(C)C)c4)n3)n2)C1` [Compound 623], the IC50 at BRM and on BRG-1 was more than 100 nM throughout.
On to `CC(C)(C)n1ccc(C(=O)NCC(=O)Nc2nc(-c3cccc(N4CCC5(CCOCC5)C4)n3)cs2)c1` [Compound 624], for which the IC50 at BRM and on BRG-1 was more than 100 nM each time.
Turning to `CC1CN(c2cccc(-c3csc(NC(=O)CNC(=O)c4ccn(C(C)(C)C)c4)n3)n2)C1` [Compound 625], the IC50 at BRM and on BRG-1 was more than 100 nM each time.
Take `CC(C)(C)n1ccc(C(=O)NCC(=O)Nc2nc(-c3cccc(N4CCC5(CCOC5)CC4)n3)cs2)c1` [Compound 626]: the IC50 at BRM and on BRG-1 was more than 100 nM throughout.
With `CC(C)(C)n1ccc(C(=O)NCC(=O)Nc2nc(-c3cccc(N4CCN(c5cccnn5)CC4)n3)cs2)c1` [Compound 627], the values for the IC50 on BRM and on BRG-1 were more than 10 nM and more than 100 nM, respectively.
Take `CC(C)(C)n1ccc(C(=O)NCC(=O)Nc2nc(-c3cccc(N4CCC5(CC4)CC(F)C5)n3)cs2)c1` [Compound 628]: the IC50 on BRM and at BRG-1 was more than 100 nM throughout.
`CC(C)(C)n1ccc(C(=O)NCC(=O)Nc2nc(-c3cccc(N4CC(N5CCS(=O)(=O)CC5)C4)n3)cs2)c1` [Compound 629]: the IC50 at BRM and at BRG-1 was more than 100 nM each time.
On to `Cc1nnc(C2CCN(c3cccc(-c4csc(NC(=O)CNC(=O)c5ccn(C(C)(C)C)c5)n4)n3)CC2)o1` [Compound 630], for which the IC50 on BRM and at BRG-1 was more than 10 nM throughout.
With `CC(C)(C)n1ccc(C(=O)NCC(=O)Nc2nc(-c3cccc(N4CCC5(CCCCO5)C4)n3)cs2)c1` (stereo not shown) [Compound 631], the IC50 on BRM and on BRG-1 was more than 10 nM each time.
Turning to `CC(C)(C)n1ccc(C(=O)NCC(=O)Nc2nc(-c3cccc(N4CCc5ccncc5C4)n3)cs2)c1` [Compound 632], the IC50 on BRM and on BRG-1 was more than 10 nM in each case.
With `CC(C)(C)n1ccc(C(=O)NCC(=O)Nc2nc(-c3cccc(N4CCC(OC(F)F)C4)n3)cs2)c1` (stereo not shown) [Compound 633], the IC50 at BRM and at BRG-1 was more than 10 nM each time.
Consider `CC(C)(C)n1ccc(C(=O)NCC(=O)Nc2nc(-c3cccc(N4CCC5(CC5)C4)n3)cs2)c1` [Compound 634], for which the IC50 on BRM and at BRG-1 was more than 10 nM in each case.
As for `CC(C)(C)n1ccc(C(=O)NCC(=O)Nc2nc(-c3cccc(N4CC[C@@H](N5CCOCC5)[C@@H](F)C4)n3)cs2)c1` [Compound 635], the IC50 on BRM and on BRG-1 was more than 100 nM throughout.
Consider `CC(C)(C)n1ccc(C(=O)NCC(=O)Nc2nc(-c3cccc(N4CCCC(N5CCCC5)C4)n3)cs2)c1` (stereo not shown) [Compound 636], for which the IC50 on BRM and on BRG-1 was more than 10 nM each time.
Consider `Cn1cc2c(n1)CCN(c1cccc(-c3csc(NC(=O)CNC(=O)c4ccn(C(C)(C)C)c4)n3)n1)C2` [Compound 637], for which the IC50 on BRM and on BRG-1 was more than 10 nM in each case.
As to `CC(C)(C)n1ccc(C(=O)NCC(=O)Nc2nc(-c3cccc(N4CCN5CCOCC5C4)n3)cs2)c1` (stereo not shown) [Compound 638], the IC50 on BRM and at BRG-1 was more than 100 nM in each case.
As for `CCC(=O)N1CCN(c2cccc(-c3csc(NC(=O)CNC(=O)c4ccn(C(C)(C)C)c4)n3)n2)CC1` [Compound 639], the IC50 on BRM and at BRG-1 was more than 10 nM in each case.
As to `CN(C)C(=O)N1CCN(c2cccc(-c3csc(NC(=O)CNC(=O)c4ccn(C(C)(C)C)c4)n3)n2)CC1` [Compound 640], the IC50 is more than 10 nM at BRM and more than 100 nM at BRG-1.
Taken in the same sequence, the figures for `CN1C(=O)CC[C@H]2CN(c3cccc(-c4csc(NC(=O)CNC(=O)c5ccn(C(C)(C)C)c5)n4)n3)CC[C@H]21` [Compound 641] were more than 100 nM and more than 100 nM.
As for `CCOC1CCN(c2cccc(-c3csc(NC(=O)CNC(=O)c4ccn(C(C)(C)C)c4)n3)n2)CC1` [Compound 642], the IC50 on BRM and at BRG-1 was more than 100 nM in each case.
In the case of `CN1C(=O)CC[C@@H]2CN(c3cccc(-c4csc(NC(=O)CNC(=O)c5ccn(C(C)(C)C)c5)n4)n3)CC[C@H]21` [Compound 643], the IC50 on BRM and on BRG-1 was more than 10 nM throughout.
For `CC(C)(C)n1ccc(C(=O)NCC(=O)Nc2nc(-c3cccc(N4CC5(COC5)C4)n3)cs2)c1` [Compound 644], the IC50 on BRM and at BRG-1 was more than 100 nM in each case.
For the molecule `CC(C)(C)n1ccc(C(=O)NCC(=O)Nc2nc(-c3cccc(N4CCCC5(CCOCC5)C4)n3)cs2)c1` [Compound 645], the IC50 at BRM and at BRG-1 was more than 10 nM throughout.
`CC(C)(C)n1ccc(C(=O)NCC(=O)Nc2nc(-c3cccc(N4CC(F)(F)C4)n3)cs2)c1` [Compound 646]: the IC50 on BRM and at BRG-1 was more than 100 nM each time.
On to `CC(C)(C)n1ccc(C(=O)NCC(=O)Nc2nc(-c3cccc(N4CC[C@@H](F)C4)n3)cs2)c1` [Compound 647], for which the IC50 at BRM and on BRG-1 was more than 10 nM throughout.
As for `C[C@@]1(n2ccc(C(=O)NCC(=O)Nc3nc(-c4cccc(N5CCC5)c4)cs3)c2)CC1(F)F` [Compound 651], the figures for the IC50 on BRM and on BRG-1 were more than 100 nM and more than 1000 nM, respectively.
For `C[C@]1(n2ccc(C(=O)NCC(=O)Nc3nc(-c4cccc(N5CCC5)c4)cs3)c2)CC1(F)F` [Compound 652] the same measures were more than 10 nM and more than 10 nM.
For `CC(C)(C)n1ccc(C(=O)NCC(=O)Nc2nc(-c3cccc(N4CCCC5(COC5)C4)n3)cs2)c1` [Compound 653] the same measures were more than 10 nM and more than 10 nM.
For `C[C@H]1CCN(c2cccc(-c3csc(NC(=O)CNC(=O)c4ccn(C(C)(C)C)c4)n3)n2)C1` [Compound 654] the same measures were more than 10 nM and more than 10 nM.
Regarding `Cc1nnc2n1CCN(c1cccc(-c3csc(NC(=O)CNC(=O)c4ccn(C(C)(C)C)c4)n3)n1)C2` [Compound 655], the IC50 at BRM and on BRG-1 was more than 100 nM in each case.
For the molecule `CC(C)(C)n1ccc(C(=O)NCC(=O)Nc2nc(-c3cccc(N4CCC(S(C)(=O)=O)CC4)n3)cs2)c1` [Compound 656], the IC50 at BRM and at BRG-1 was more than 100 nM in each case.
`CC(C)(C)n1ccc(C(=O)NCC(=O)Nc2nc(-c3cccc(N4CCn5ccnc5C4)n3)cs2)c1` [Compound 657]: the IC50 on BRM was more than 10 nM; at BRG-1, more than 100 nM.
Taken in the same sequence, the figures for `CN1CCc2cc(-c3csc(NC(=O)CNC(=O)c4ccn(S(C)(=O)=O)c4)n3)ccc21` [Compound 658] were more than 10 nM and more than 10 nM.
`CC(C)(C)n1ccc(C(=O)NCC(=O)Nc2nc(-c3cccc(N4CC[C@H]5OCCC[C@@H]5C4)n3)cs2)c1` [Compound 659]: the IC50 at BRM was more than 10 nM; on BRG-1, more than 100 nM.
For `CC(C)(C)n1ccc(C(=O)NCC(=O)Nc2nc(-c3cccc(N4CC5CN(c6ccncc6)CC5C4)n3)cs2)c1` (stereo not shown) [Compound 660] the same measures were more than 100 nM and more than 100 nM.
For `CC(C)(C)n1ccc(C(=O)NCC(=O)Nc2nc(-c3cccc(N4C[C@@H]5OCC(F)(F)[C@@H]5C4)n3)cs2)c1` [Compound 661] the same measures were more than 100 nM and more than 100 nM.
For the molecule `CC(C)(C)n1ccc(C(=O)NCC(=O)Nc2nc(-c3cccc(N4CC[C@H]5COC[C@@H]5C4)n3)cs2)c1` [Compound 662], the IC50 at BRM and at BRG-1 was less than 10 nM throughout.
For the molecule `CC(C)(C)n1ccc(C(=O)NCC(=O)Nc2nc(-c3cccc(N4C[C@@H](F)[C@@H](F)C4)n3)cs2)c1` [Compound 664], the IC50 is more than 10 nM at BRM and more than 100 nM at BRG-1.
Regarding `CC(C)(C)n1ccc(C(=O)NCC(=O)Nc2nc(-c3cccc(N4CCN(S(C)(=O)=O)CC4)n3)cs2)c1` [Compound 665], the IC50 on BRM and at BRG-1 was more than 100 nM in each case.
Consider `CC(C)(C)n1ccc(C(=O)NCC(=O)Nc2nc(-c3cccc(N4CCC(S(C)(=O)=O)C4)n3)cs2)c1` (stereo not shown) [Compound 667], for which the values for the IC50 on BRM and at BRG-1 were more than 10 nM and more than 100 nM, respectively.
Taken in the same sequence, the figures for `CC(C)(C)n1ccc(C(=O)NCC(=O)Nc2nc(-c3cccc(N4CCCC5(CCO5)C4)n3)cs2)c1` (stereo not shown) [Compound 668] were more than 10 nM and more than 10 nM.
For `CC(C)(C)n1ccc(C(=O)NCC(=O)Nc2nc(-c3cccc(N4CCCC5(CCCO5)C4)n3)cs2)c1` (stereo not shown) [Compound 669] the same measures were more than 100 nM and more than 100 nM.
Taken in the same sequence, the figures for `CN(C)[C@@H]1CCN(c2cccc(-c3csc(NC(=O)CNC(=O)c4ccn(C(C)(C)C)c4)n3)n2)C1` [Compound 670] were more than 10 nM and more than 100 nM.
For `CC(C)(C)n1ccc(C(=O)NCC(=O)Nc2nc(-c3cccc(N4CCC5(CCOC5)C4)n3)cs2)c1` (stereo not shown) [Compound 671], the IC50 on BRM is more than 10 nM; on BRG-1 it was more than 100 nM.
